One compound from patent US20070128719A1, “ISOLATION AND EXPANSION OF ANIMAL CELLS IN CELL CULTURES” (TissueTech, Inc., priority 2003, published 2007) can be followed below.

Experiment [1] relates to human limbal explants. Kind of experiment: Epithelial outgrowth from human limbal explants cultured on intact AM with kinase inhibitors. It is filed as cell-based. As to conditions: 10 μM. As to the method:
Human AM was provided by Bio-Tissue (Miami, Fla.) and stored at −80° C. before use. AM was devitalized by freezing and thawing and washed three times with HBSS before being fastened onto a 30 mm culture insert, Millicel-CM (which generated an insert with 23 mm diameter covered by AM), and placed in a 6 well plate (Meller, D. and Tseng S C G, Invest Ophthalmol Vis Sci., 40:878-86, 1999).
After removal of excessive sclera, iris, corneal endothelium, conjunctiva, and Tenon's capsule, the limbal ring was separated by a 7.5 mm trephine from donor human corneas. Each limbal ring was rinsed 3 times with SHEM media. The limbal ring was then exposed for 10 min to 1.2 units/ml Dispase II in Mg^2+- and Ca^2+-free HBSS at 37° C. under 95% humidity and 5% CO2. Following three rinses with SHEM medium, each limbal ring was subdivided into two halves and each half further subdivided into 6 pieces of 1×1.5×2.5 mm explants. To eliminate variations of age, sex, and race, explants from the corresponding position of the same donor cornea were selected for the control and the experimental group, respectively. An explant was placed on the center of intact AM or plastic with the epithelial side facing up and cultured in SHEM medium. The experimental group was added with the inhibitor of desired concentration, while the control group was added with the same concentration of DMSO as the vehicle which was used to dissolve each inhibitor. The culture was maintained at 37° C. under 95% humidity and 5% CO2, the medium was changed every other day, and their outgrowth was monitored daily for 17 days using an inverted phase microscope (Nikon, Japan). The outgrowth area was digitized every other day by Adobe Photoshop 5.5 and analyzed by NIH ImageJ 1.30v (NIH, Bethesda, Md.).
All experiments were performed at least in triplicate. Summary data were reported as means±S.D., compiled and analyzed by MicroSoft Excel™ (MicroSoft, Redmont, Wash.). The mean and standard deviation were calculated for each group using the appropriate version of Student's unpaired t-test. Test results were reported as two-tailed p values, where p<0.05 was considered statistically significant.

Experiment [2] relates to p44/42 MAPK. Kind of experiment: Western blot of p44/42 MAPK phosphorylation in limbal epithelial cells expanded on intact AM. Type of experiment: cell-based, human. As to conditions: 10 μM. Background: Immunoblotting shows a protein as a band on a membrane.
In experiment [3] the test system is corneal limbal epithelial cells. Kind of experiment: Type IV collagen immunostaining of epithelial outgrowth from human limbal explants on denuded AM. As to conditions: explant on dAM in SHEM. Type of experiment: cell-based.
For experiment [4], the system named is rabbit corneal limbal explant. Briefly: Rabbit limbal explant outgrowth on type I collagen coated insert, airlift culture. It is filed as cell-based. As to conditions: SHEM. As for the experimental part: (§1) Human limbal tissue cubes can be placed in the alternative on the center of type I collagen coated inserts and cultured in SHEM medium under submerge and airlift manners, of which the later was also added with p38 inhibitor. In the submerge manner, 4 ml culture medium was added to the culture dish to cover the entire limbal explant. In the airlift manner, 2 ml culture medium was added so as to let the insert bottom sit on the air-liquid interface. That is, the explant was exposed to air, but the remaining explant stroma was submerged in the medium meniscus. In the airlift+p38 inhibitor group, p 38 inhibitor SB 203580 was added to culture medium at a concentration of 10 μM. Cultures were incubated at 37° C. under 5% CO2 and 95% air, and the medium is changed every 2 days. Rabbit limbal explants are also cultured in the same fashion as the human tissue. Limbal tissue cubes are placed on the center of type I collagen coated inserts and cultured under airlift manner in SHEM medium with or without p38 inhibitor SB203580 for 1 week.
To study the effect of p38 inhibitor on the outgrowth epithelial sheet, rabbit corneal limbal explant is cultured on the type I collagen coated insert under the airlift manner in SHEM medium for 1 week with or without addition of p38 inhibitor (FIG. 2).

Experiment [5] concerns limbal epithelial progenitor cells. Briefly: K12 and K10 immunostaining of human limbal explants in airlift culture. It is filed as cell-based. The conditions noted are these: SHEM, 2 weeks, 10 μM. As for the experimental part:
as §1
To study the effect of p38 inhibitor on the differentiation of limbal epithelial progenitor cells, human corneal limbal explants were cultured under submerge and airlift manners, of which the later was added with or without p38 inhibitor, on type I collagen coated inserts in SHEM medium for 2 weeks. […]

Experiment [6] has as its system p38 MAPK. Kind of experiment: Western blot of p38 MAPK phosphorylation in limbal epithelial cells expanded on intact AM. As to conditions: 10 μM.

Structures are written as SMILES.

`C[S+]([O-])c1ccc(-c2nc(-c3ccncc3)c(-c3ccc(F)cc3)[nH]2)cc1` (stereo not shown) [SB203580]: in experiment [1], the “day at which epithelial outgrowth was noted / started” value amounted to 5 days. Moreover, in experiment [1] (limbal explant on intact AM in SHEM, up to 17 days, vs DMSO control), the epithelial outgrowth entry is “did not change the outgrowth”. Further, the “phosphorylation of p44/42 MAPK (Thr202 and Tyr204)” value in experiment [2] was “did increase”. Moreover, the “type IV collagen staining of outgrowth epithelial cells” value in experiment [3] (2 weeks) was “intracellular staining”. In addition, the “type IV collagen staining of outgrowth epithelial cells” value in experiment [3] (4 weeks) is given as “strong linear band staining”. Also, the “outgrowth rate based on outgrowth surface area” value in experiment [4] (1 week) is on record as “not inhibited”. Also, the “outgrowth sheet in H&E stained cross-sections” value in experiment [4] (with p38 inhibitor) is “intact and consisted of uniformly two layers”. In addition, in experiment [5], the “K10 positive cells in limbal and corneal epithelium” value was “no K10 positive cells”; the “K12 expression in the limbal epithelium” value was “restored”. For the same compound, the “phosphorylation at Thr180/Tyr182 of p38 MAPK” value in experiment [6] is recorded as “abolished”.
